{
  "source": "patent US20170368148A1",
  "about": "“USES OF A PTHrP ANALOGUE IN REDUCING FRACTURE RISK” (RADIUS HEALTH, INC., priority 2015, published 2017)",
  "test_system": "postmenopausal women with osteoporosis",
  "assay": "ACTIVE phase 3 trial: fracture rates and fracture risk reduction, 18 months",
  "assay_type": "in vivo, human",
  "details": "abaloparatide 80 μg or teriparatide 20 μg daily SC",
  "description": "The ACTIVE phase 3 fracture prevention trial was conducted for abaloparatide in postmenopausal women with osteoporosis who were otherwise healthy. The enrolled subjects were treated with 80 micrograms (μg) of abaloparatide, a matching placebo, or the approved daily dose of 20 μg of teriparatide for 18 months. The ACTIVE trial evaluated fracture rates, fracture risks, BMD, and bone turnover biomarkers (e.g., CTX and P1NP) in all patient groups.\nFracture risk reduction and hazard ratio (HR) were derived from Kaplan-Meier (KM) curve.\nThe ACTIVE pivotal Phase 3 fracture prevention trial for the PTHrP analogue abaloparatide, Study BA058-05-003 (see ClinicalTrials.gov), was a randomized, double-blind, placebo-controlled trial in postmenopausal osteoporotic women randomized to receive daily doses of one of the following for 18 months: 80 micrograms (μg) of abaloparatide; a matching placebo; or the approved daily dose of 20 μg of teriparatide. Treatment with abaloparatide at a daily dose of 80 μg or placebo remained blinded to all parties throughout the study. Teriparatide used was a proprietary prefilled drug and device combination that could not be repackaged. Therefore, its identity could not be blinded to treating physicians and patients once use began. Study medication was self-administered daily by subcutaneous injection for a maximum of 18 months. All enrolled patients also received calcium and vitamin D supplementation from the time of enrollment until the end of the treatment period. It was recommended to patients that they also continue these supplements through the one-month follow-up period.\nThe trial completed enrollment in March 2013 with 2,463 patients at 28 medical centers in 10 countries in the United States, Europe, Latin America, and Asia. The baseline characteristics of the selected patients are detailed in Table 3 below.\nThe study enrolled otherwise healthy ambulatory women aged 49 to 86 (inclusive) who had been postmenopausal for at least five years, met the study entry criteria, and had provided written informed consent. […] All patients were to be in good general health as determined by medical history, physical examination (including vital signs), and clinical laboratory testing. This study population contained a patient population reflective of the type of severe osteoporosis patients that specialists would be expected to treat in their practices.\nAs set forth in the ACTIVE protocol, the primary efficacy endpoint was the number of patients treated with abaloparatide with incident vertebral fractures at the end of treatment as compared to those who received placebo. The pre-specified secondary efficacy parameters included, among other endpoints, reduction in the incidence/risk of non-vertebral fractures; changes in BMD of the spine, hip, and femoral neck from baseline to end of treatment as assessed by DXA and as compared to teriparatide; and the number of hypercalcemic events in abaloparatide treated patients when compared to teriparatide at end of treatment.",
  "data": [
    {"smiles": "CC[C@H](C)[C@H](NC(=O)[C@H](CCC(=O)O)NC(=O)[C@H](CO)NC(=O)[C@@H](NC(=O)[C@@H](N)CO)C(C)C)C(=O)N[C@@H](CCC(N)=O)C(=O)N[C@@H](CC(C)C)C(=O)N[C@@H](CCSC)C(=O)N[C@@H](Cc1cnc[nH]1)C(=O)N[C@@H](CC(N)=O)C(=O)N[C@@H](CC(C)C)C(=O)NCC(=O)N[C@@H](CCCCN)C(=O)N[C@@H](Cc1cnc[nH]1)C(=O)N[C@@H](CC(C)C)C(=O)N[C@@H](CC(N)=O)C(=O)N[C@@H](CO)C(=O)N[C@@H](CCSC)C(=O)N[C@@H](CCC(=O)O)C(=O)N[C@@H](CCCN=C(N)N)C(=O)N[C@H](C(=O)N[C@@H](CCC(=O)O)C(=O)N[C@@H](Cc1c[nH]c2ccccc12)C(=O)N[C@@H](CC(C)C)C(=O)N[C@@H](CCCN=C(N)N)C(=O)N[C@@H](CCCCN)C(=O)N[C@@H](CCCCN)C(=O)N[C@@H](CC(C)C)C(=O)N[C@@H](CCC(N)=O)C(=O)N[C@@H](CC(=O)O)C(=O)N[C@H](C(=O)N[C@@H](Cc1cnc[nH]1)C(=O)N[C@@H](CC(N)=O)C(=O)N[C@@H](Cc1ccccc1)C(=O)O)C(C)C)C(C)C", "note": "[teriparatide, hPTH(1-34)]", "values": [
      {"measurement": "Fracture Rate, incident clinical fractures", "value": 4.3, "unit": "%"},
      {"measurement": "Fracture Rate, incident non-vertebral fractures", "value": 2.9, "unit": "%"},
      {"measurement": "Fracture Rate, major osteoporotic fractures", "value": 2.8, "unit": "%"},
      {"measurement": "Fracture Rate, wrist", "value": 2.1, "unit": "%"},
      {"measurement": "Fracture Risk Reduction v. PBO, incident clinical fractures", "value": 29, "unit": "%"},
      {"measurement": "Fracture Risk Reduction v. PBO, incident non-vertebral fractures", "value": 28, "unit": "%"},
      {"measurement": "Fracture Risk Reduction v. PBO, major osteoporotic fractures", "value": 33, "unit": "%"},
      {"measurement": "Fracture Risk Reduction v. PBO, wrist", "value": "−13", "unit": "%"},
      {"measurement": "Fracture rate, new vertebral fractures (excluding worsening)", "value": 0.84, "unit": "%"},
      {"measurement": "Reduction of new vertebral fractures (excluding worsening) as compared to placebo", "value": 80, "unit": "%"},
      {"measurement": "Fracture Risk Reduction v. PBO, incident clinical fractures", "setting": "listed as TPTD", "value": 29, "unit": "%"},
      {"measurement": "Fracture Risk Reduction v. PBO, incident non-vertebral fractures", "setting": "listed as TPTD", "value": 28, "unit": "%"},
      {"measurement": "Fracture Risk Reduction v. PBO, major osteoporotic fractures", "setting": "listed as TPTD", "value": 33, "unit": "%"},
      {"measurement": "Fracture Risk Reduction v. PBO, incident non-vertebral fractures", "setting": "listed as Teriparatide", "value": 28, "unit": "%"}
    ]}
  ]
}
